Data set [1] concerns Leishmania infantum. The data set is described as follows: Antileishmanial activity against Leishmania infantum MHOM/MA/67/ITMAP-263 infected in THP1 cells assessed as reduction in parasite growth incubated for 120 hrs by Giemsa staining based inverted microscopic analysis. In kind it is functional, organism-based. As to conditions: MHOM/MA/67/ITMAP-263, THP-1, 120 h.
Data set [2] deals with Trypanosoma cruzi. Put plainly: Antitrypanosomal activity against Trypanosoma cruzi (MHOM/CH/00/Tulahuen C2, lacZ) amastigotes infected in HFF-1 cells assessed as reduction in parasite growth incubated for 120 hrs by CPRG/Igepal substrate based photometric method. As to conditions: MHOM/CH/00/Tulahuen C2, HFF-1, 120 h. In kind it is functional, organism-based.
Data set [3] relates to Trypanosoma cruzi. Put plainly: Antitrypanosomal activity against Trypanosoma cruzi (MHOM/CH/00/Tulahuen C2, lacZ) amastigotes infected in HFF-1 cells assessed as reduction in parasite growth at 150 uM incubated for 120 hrs by CPRG/Igepal substrate based photometric method relative to control. In kind it is functional. As to conditions: MHOM/CH/00/Tulahuen C2, HFF-1.
Data set [4] relates to Trypanosoma cruzi. Put plainly: Antitrypanosomal activity against Trypanosoma cruzi (MHOM/CH/00/Tulahuen C2, lacZ) amastigotes infected in HFF-1 cells assessed as reduction in parasite growth at 75 uM incubated for 120 hrs by CPRG/Igepal substrate based photometric method relative to control. In kind it is functional. The settings on record: MHOM/CH/00/Tulahuen C2, HFF-1.

Data set [5] in a line: Cytotoxicity against human HepG2 cells assessed as reduction in cell viability incubated for 120 hrs by MTS assay. In kind it is cell-based.
Data set [6] is described as follows: Cytotoxicity against human HFF-1 cells assessed as reduction in cell viability incubated for 120 hrs by MTS assay. In kind it is cell-based. A general note: Tetrazolium dyes change colour on reduction, which living cells bring about.
For data set [7], the system named is Trypanosoma cruzi. Put plainly: Antitrypanosomal activity against Trypanosoma cruzi (MHOM/CH/00/Tulahuen C2, lacZ) amastigotes infected in HFF-1 cells assessed as reduction in parasite growth at 300 uM incubated for 120 hrs by CPRG/Igepal substrate based photometric method relative to control. As to conditions: MHOM/CH/00/Tulahuen C2, HFF-1. In kind it is functional.

pIC50: −log10 of the molar value.

Consider `C=C(c1nc(-c2ccccc2)no1)C1(O)C(=O)N(CC)c2ccccc21` (centres undefined), for which the pIC50 (usually −log10 of the IC50, conventionally taken in molar units) was 5.14 in data set [1] and 5.64 in data set [2]. The inhibition (as a rule, how much of the control response was suppressed) at 150 µM in data set [3] amounted to 100%. In addition, the inhibition at 75 µM in data set [4] turned out to be 100%. For the same molecule, the 50% cytotoxic concentration (CC50) (commonly the concentration at which the toxic effect on the cells reaches its halfway point) at 120 h in data set [5] is 26.8 µM; in data set [6], greater than 64 µM. Further, the inhibition at 300 µM in data set [7] amounted to 100%.

For the molecule `C=C(c1nc(-c2ccccc2)no1)C(O)c1cccnc1` (centres undefined), the pIC50 in data set [1] is 5.07; in data set [2], 5.66. Further, the inhibition at 150 µM in data set [3] came to 99.6%. The inhibition at 75 µM in data set [4] stood at 89.5%. The values for the CC50 at 120 h in data set [5] and in data set [6] were 19 µM and greater than 64 µM, respectively. Also, in data set [7], the inhibition at 300 µM amounted to 100%.

In the case of `C=C(c1nc(-c2ccccc2)no1)C1(O)C(=O)N(CC)c2ccc([N+](=O)[O-])cc21` (centres undefined), the pIC50 in data set [1] is 5.29; in data set [2], less than 5.17. Also, in data set [3], the inhibition at 150 µM stood at 85.4%. The inhibition at 75 µM in data set [4] worked out at 78.9%. Besides, the cytotoxic concentration (CC50) at 120 h in data set [5] is 3.61 µM; in data set [6], greater than 64 µM. In addition, the inhibition at 300 µM in data set [7] worked out at 100%.

Regarding `CCN1C(=O)C2(OCC=C2c2nc(-c3ccccc3)no2)c2ccccc21` (centres undefined), the negative logarithm of the IC50 (pIC50) in data set [1] is 4.93; in data set [2], 4.92. Also, the CC50 at 120 h in data set [5] amounted to 60.4 µM; in data set [6] it was 20.6 µM.

For `C=C(c1nc(-c2ccccc2)no1)C1(O)C(=O)N(CC)c2ccc(Br)cc21` (centres undefined), the negative logarithm of the IC50 (pIC50) was 5.43 in data set [1] and 5.66 in data set [2]. For the same molecule, the inhibition at 150 µM in data set [3] was 100%. The inhibition at 75 µM in data set [4] amounted to 100%. In addition, the 50% cytotoxic concentration (CC50) at 120 h in data set [5] is 11.5 µM; in data set [6], greater than 64 µM. Also, the inhibition at 300 µM in data set [7] is 100%.

`C=C(c1nc(-c2ccccc2)no1)C(O)c1cccc(Cl)c1` (centres undefined): the pIC50 was 5.11 in data set [1] and 5.21 in data set [2]. In data set [3], the inhibition at 150 µM is 98.6%. Besides, the inhibition at 75 µM in data set [4] stood at 90.5%. Moreover, the half-maximal cytotoxic concentration (CC50) at 120 h in data set [5] is 20.2 µM; in data set [6] it was greater than 64 µM. Further, the inhibition at 300 µM in data set [7] worked out at 100%.

As for `C=CCOC1(C(=C)c2nc(-c3ccccc3)no2)C(=O)N(CC)c2c(Br)cccc21` (centres undefined), the pIC50 in data set [1] was 5.31; in data set [2], 5.20. In data set [3], the inhibition at 150 µM came to 100%. The inhibition at 75 µM in data set [4] turned out to be 93.8%. For the same molecule, the values for the CC50 at 120 h in data set [5] and in data set [6] were 60.6 µM and 20.3 µM, respectively. Moreover, the inhibition at 300 µM in data set [7] is 100%.

For the molecule `CCN1C(=O)C2(OCC=C2c2nc(-c3ccccc3)no2)c2cccc(Br)c21` (centres undefined), the pIC50 in data set [1] was 5.19; in data set [2], 4.57. Further, the CC50 at 120 h in data set [5] came out at 58.4 µM; in data set [6] it was 34.2 µM.

Turning to `O=C(Cn1ccnc1[N+](=O)[O-])NCc1ccccc1` [BENZNIDAZOLE], in data set [2], the negative logarithm of the IC50 (pIC50) is 5.25. Further, the inhibition at 150 µM in data set [3] stood at 92.8%. In data set [4], the inhibition at 75 µM amounted to 85.5%. The inhibition at 300 µM in data set [7] was 100%.

(Values after ChEMBL document CHEMBL4765358, “Discovery of highly potent and selective antiparasitic new oxadiazole and hydroxy-oxindole small molecule hybrids” (Eur J Med Chem, 2020).)
